# In patent publication US20240269128A1, “COMPOUNDS FOR TREATING OR PREVENTING ALZHEIMER'S DISEASE” (THE UNITED STATES OF AMERICA, as represented by the …, priority 2021, published 2024):
# Assays:
# [1] = test system: hippocampal CA1 synapses of APP/PS1 mice; assay: Late long-term potentiation, field recordings in hippocampal slices; parameters: species or system mouse; settings: for impaired late-LTP: APP/PS1 slices
# 5xFAD mice = assay: Plasma NfL in 5xFAD mice (NF-light ELISA); assay type: in vivo, mouse; settings: compared to saline-treated transgenic mice
# Method: HCQ nano (poly(L-lysine succinylated)-HCQ, or PLS-HCQ) preparation: 2.5 mL of saline were added to each vial of lyophilized material on each dose day and vortexed briefly to mix. Fresh vials were prepared daily. Solution was pale yellow in color and was protecedt from light. Remaining material was discardedafter animals were successfully dosed each day. […] 100 mg/kg, i.p. injection 10 μL/g b.w.
# TUDCA preparation: Dissolved in saline; treatment dosage 500 mg/kg; i.p. injection 10 μL/g b.w.
# Animal management: Animals were housed in individual ventilated cages on standardized rodent bedding supplied by Rettenmaier. Each cage contained a maximum of five mice. The temperature in the keeping room was maintained between 20 to 24° C. and the relative humidity was maintained between 45 to 65%. Animals were housed under a constant light-cycle (12 hours light/dark). […]
# The NF-light® (Neurofilament-light) ELISA 10-7001 CE from UmanDiagnostics was used for analysis. The following samples were analyzed: terminal CSF, terminal blood plasma as well as all 4 timepoints from the in vivo bleedings from 6 animals per groups (3 groups; 18 animals, 108 samples in total). Samples were diluted (1:3 for plasma, 1:35 for CSF) in assay buffer and analyzed according to the manufacturers protocol. CSF and in vivo samples are analyzed in single replicates only, due to limited sample volume. […]
# [2] = test system: murine microglial cell line BV-2; assay: LPS-induced neuroinflammation in BV-2 microglial cells (cytokines by MSD V-PLEX, MTT); assay type: cell-based, mouse
# Method: Lipopolysaccharide (LPS)-Induced Neuroinflammation: The murine microglial cell line BV-2 was cultivated in DMEM medium supplemented with 10% FCS, 1% penicillin/streptomycin and 2 mM L-glutamine (culture medium). For LPS stimulation assay, 5000 BV-2 cells per well (uncoated 96 well plates) were plated out and the medium was changed to treatment medium (DMEM, 5% FCS, 2 mM L-glutamine). After changing cells to treatment medium, drug compounds were administered 1 hour before LPS stimulation (Sigma-Aldrich; L6529; 1 mg/ml stock in ddH2O, final concentration in well: 100 ng/ml (dilutions in medium)). Cells treated with vehicle, cells treated with LPS alone, as well as cells treated with LPS plus reference item (dexamethasone 10 μM, Sigma D4902) served as controls. After 24 h of stimulation, cell supernatants were collected for the cytokine measurement (V-PLEX Proinflammatory Panel 1 Mouse Kit, K15048D, Mesoscale) and cells were subjected to MTT assay.
# MTT Assay: MTT solution was added to each well in a final concentration of 0.5 mg/mL. After 2 h, the MTT containing medium was aspirated. Cells were lysed in 3% SDS and the formazan crystals were dissolved in isopropanol/HCl. Optical density was measured with a Cytation 5 (Biotek) multimode reader at wavelength 570 nm. Values were calculated as percent of control values (vehicle control or lesion control).
# After changing cells to treatment medium, HCQ (0.25 μM, 2.5 μM and 25 μM) was applied 1 hour before LPS stimulation (Sigma-Aldrich; L6529; 1 mg/ml stock in ddH2O, final concentration in well: 100 ng/ml (dilutions in medium)).
# [3] = WT and APP/PS1 before and after HCQ
Structure (SMILES),"impaired late-LTP ([1]; 25 μM HCQ sulphate, bath-applied 60 min)",impaired late-LTP ([1]; 50 μM HCQ sulphate),"input-output (I/O) curves [1, 3]","paired pulse ratio (PPR) [1, 3]","L-LTP in wild type slices ([1]; wild type mice, 50 μM HCQ, vs untreated wild type)",peak in plasma NfL levels (5xFAD mice; 100 mg/kg i.p.),"IL-1b ([2]; 2.5 μM, 25 μM, LPS)","IL-6 ([2]; 2.5 μM, 25 μM, LPS)","IL-10 ([2]; 2.5 μM, 25 μM, LPS)","IL-12p70 ([2]; 2.5 μM, 25 μM, LPS)","TNF-alpha secretion ([2]; 25 μM, LPS)",cell viability ([2]; HCQ in LPS assay),LTP in APP/PS1 mice ([1]; 100 μM TUDCA),peak plasma NfL levels (5xFAD mice; 500 mg/kg i.p.)
"CCN(CCO)CCCC(C)Nc1ccnc2cc(Cl)ccc12 (centres unmarked) [HCQ, hydroxychloroquine]",partially rescued,fully rescued,did not show any significant differences,did not show a significant difference,does not alter L-LTP,partially lowered,dose dependent (2.5 μM<25 μM) reduction,dose dependent (2.5 μM<25 μM) reduction,dose dependent (2.5 μM<25 μM) reduction,dose dependent (2.5 μM<25 μM) reduction,reduction,without any adverse effects on cell viability,–,–
"C[C@H](CCC(=O)NCCS(=O)(=O)O)[C@H]1CC[C@H]2[C@@H]3[C@@H](O)C[C@@H]4C[C@H](O)CC[C@]4(C)[C@H]3CC[C@]12C [TUDCA, tauroursodeoxycholic acid]",–,–,–,–,–,–,–,–,–,–,–,–,no longer induced LTP,partially lowered
